From patent US4118561A, “7-(Substituted)-7H-pyrrolo[3,2-f]quinazoline-1,3-diamines” (priority 1977, dated 1978)
Converted amounts (≈) assume the structure as drawn.

Tests used:
S. paratyphi 11737 = experiment: In vitro antibacterial activity (MIC), S. paratyphi 11737; type: cell-based; details: Salmonella enterica, 18 h
E. coli 9637 = experiment: In vitro antibacterial activity (MIC), E. coli 9637; details: Escherichia coli, 9637, 18 h
S. aureus Smith = experiment: In vitro antibacterial activity (MIC), S. aureus Smith; details: Staphylococcus aureus, 18 h
S. aureus 53-180 = experiment: In vitro antibacterial activity (MIC), S. aureus 53-180; details: Staphylococcus aureus, 53180, 18 h
P. vulgaris 6896 = experiment: In vitro antibacterial activity (MIC), P. vulgaris 6896; details: Proteus vulgaris, 6896, 18 h
N. catarrhalis 8193 = experiment: In vitro antibacterial activity (MIC), N. catarrhalis 8193; details: 18 h
K. pneumoniae 10031 = experiment: In vitro antibacterial activity (MIC), K. pneumoniae 10031; details: Klebsiella pneumoniae, 10031, 18 h

| SMILES | MIC (S. paratyphi 11737) | MIC (E. coli 9637) | MIC (S. aureus Smith) | MIC (S. aureus 53-180) | MIC (P. vulgaris 6896) | MIC (N. catarrhalis 8193) | MIC (K. pneumoniae 10031) |
| --- | --- | --- | --- | --- | --- | --- | --- |
| Nc1nc(N)c2c(ccc3[nH]ccc32)n1 [Example 1, 7-H-Pyrrolo[3,2-f]quinazoline-1,3-diamine] | 31.3 µg/mL (≈ 157 µM) | 3.9 µg/mL (≈ 19.6 µM) | 31.3 µg/mL (≈ 157 µM) | 31.3 µg/mL (≈ 157 µM) | 15.6 µg/mL (≈ 78.3 µM) | 0.244 µg/mL (≈ 1.22 µM) | 7.81 µg/mL (≈ 39.2 µM) |
| Nc1nc(N)c2c(ccc3c2ccn3-c2nc3ccccc3s2)n1 [Example 97, 7-(2-Benzothiazolyl)-7H-pyrrolo-[3,2-f]quinazoline-1,3-diamine] | > 250 µg/mL | > 250 µg/mL | 250 µg/mL (≈ 752 µM) | 125 µg/mL (≈ 376 µM) | > 250 µg/mL | 0.488 µg/mL (≈ 1.47 µM) | 62.5 µg/mL (≈ 188 µM) |
| Nc1nc(N)c2c(ccc3c2ccn3-c2ccnc3cc(Cl)ccc23)n1 [Example 89] | > 250 µg/mL | 15.6 µg/mL (≈ 43.2 µM) | 0.488 µg/mL (≈ 1.35 µM) | 0.122 µg/mL (≈ 0.338 µM) | 250 µg/mL (≈ 693 µM) | 0.244 µg/mL (≈ 0.676 µM) | 0.488 µg/mL (≈ 1.35 µM) |
| Nc1nc(N)c2c(ccc3[nH]c4c(c32)CCCC4)n1 [Example 107, 8,9,10,11-Tetrahydro-7H-pyrimido-[4,5-c]carbazole-1,3-diamine] | 125 µg/mL (≈ 493 µM) | 125 µg/mL (≈ 493 µM) | 62.5 µg/mL (≈ 247 µM) | 125 µg/mL (≈ 493 µM) | > 250 µg/mL | 125 µg/mL (≈ 493 µM) | 125 µg/mL (≈ 493 µM) |
| N#Cc1cc([N+](=O)[O-])ccc1-n1ccc2c3c(N)nc(N)nc3ccc21 [Example 79] | > 250 µg/mL | 15.6 µg/mL (≈ 45.2 µM) | 0.488 µg/mL (≈ 1.41 µM) | 0.488 µg/mL (≈ 1.41 µM) | > 250 µg/mL | 0.244 µg/mL (≈ 0.707 µM) | 1.95 µg/mL (≈ 5.65 µM) |
| Cc1nc2ccccc2nc1-n1ccc2c3c(N)nc(N)nc3ccc21 [Example 92] | > 250 µg/mL | 7.81 µg/mL (≈ 22.9 µM) | 1.95 µg/mL (≈ 5.71 µM) | 0.488 µg/mL (≈ 1.43 µM) | > 250 µg/mL | 0.122 µg/mL (≈ 0.357 µM) | 0.976 µg/mL (≈ 2.86 µM) |
| Cn1c2c(c3c4c(N)nc(N)nc4ccc31)CCCC2 [Example 109, 8,9,10,11-Tetrahydro-7-methyl-7H-pyrimido[4,5-c]carbazole-1,3-diamine] | 250 µg/mL (≈ 935 µM) | > 250 µg/mL | 62.5 µg/mL (≈ 234 µM) | 62.5 µg/mL (≈ 234 µM) | > 250 µg/mL | 3.9 µg/mL (≈ 14.6 µM) | 62.5 µg/mL (≈ 234 µM) |
| Nc1nc(N)c2c(ccc3c2ccn3CC2CCCO2)n1 (stereo not drawn) [Example 67, 7-[(Tetrahydro-2-furanyl)methyl]-7H-pyrrolo-[3,2-f]quinazoline-1,3-diamine] | 7.81 µg/mL (≈ 27.6 µM) | 1.95 µg/mL (≈ 6.88 µM) | 3.9 µg/mL (≈ 13.8 µM) | 0.976 µg/mL (≈ 3.44 µM) | 3.9 µg/mL (≈ 13.8 µM) | 0.0038 µg/mL (≈ 0.0134 µM) | 0.488 µg/mL (≈ 1.72 µM) |
| COc1cc(Cn2ccc3c4c(N)nc(N)nc4ccc32)cc(OC)c1 [Example 58] | 1.95 µg/mL (≈ 5.58 µM) | 0.976 µg/mL (≈ 2.79 µM) | 0.488 µg/mL (≈ 1.4 µM) | 0.244 µg/mL (≈ 0.698 µM) | 15.6 µg/mL (≈ 44.6 µM) | 0.061 µg/mL (≈ 0.175 µM) | 0.122 µg/mL (≈ 0.349 µM) |
| Nc1nc(N)c2c(ccc3c2c2c(n3Cc3ccccc3)CCCC2)n1 [Example 108, 8,9,10,11-Tetrahydro-7-(phenylmethyl)-7H-pyrimido[4,5-c]carbazole-1,3-diamine] | > 250 µg/mL | > 250 µg/mL | > 250 µg/mL | 250 µg/mL (≈ 728 µM) | > 250 µg/mL | 0.122 µg/mL (≈ 0.355 µM) | > 250 µg/mL |
| Nc1nc(N)c2c(ccc3c2cc(Cl)n3Cc2ccccc2)n1 [Example 104, 8-Chloro-7-(phenylmethyl)-7H-pyrrolo-[3,2-f]quinazoline-1,3-diamine] | 7.81 µg/mL (≈ 24.1 µM) | 3.9 µg/mL (≈ 12 µM) | 3.9 µg/mL (≈ 12 µM) | 0.976 µg/mL (≈ 3.01 µM) | 31.3 µg/mL (≈ 96.7 µM) | 0.061 µg/mL (≈ 0.188 µM) | 0.244 µg/mL (≈ 0.754 µM) |
| COc1cccc(Cn2ccc3c4c(N)nc(N)nc4ccc32)c1OC [Example 35] | 15.6 µg/mL (≈ 44.6 µM) | 0.488 µg/mL (≈ 1.4 µM) | 0.488 µg/mL (≈ 1.4 µM) | 0.244 µg/mL (≈ 0.698 µM) | 7.81 µg/mL (≈ 22.4 µM) | 0.122 µg/mL (≈ 0.349 µM) | 0.488 µg/mL (≈ 1.4 µM) |
| Cc1cc(-n2ccc3c4c(N)nc(N)nc4ccc32)c2ccccc2n1 [Example 91] | 1.95 µg/mL (≈ 5.73 µM) | 1.95 µg/mL (≈ 5.73 µM) | 0.061 µg/mL (≈ 0.179 µM) | 0.061 µg/mL (≈ 0.179 µM) | 3.9 µg/mL (≈ 11.5 µM) | 0.031 µg/mL (≈ 0.0911 µM) | 0.061 µg/mL (≈ 0.179 µM) |
| Cn1ccc2c3c(N)nc(N)nc3ccc21 [Example 65, 7-Methyl-7H-pyrrolo[3,2-f]quinazoline-1,3-diamine] | 3.9 µg/mL (≈ 18.3 µM) | 0.976 µg/mL (≈ 4.58 µM) | 62.5 µg/mL (≈ 293 µM) | 7.81 µg/mL (≈ 36.6 µM) | 1.95 µg/mL (≈ 9.14 µM) | 0.031 µg/mL (≈ 0.145 µM) | 1.95 µg/mL (≈ 9.14 µM) |
| Nc1nc(N)c2c(ccc3c2ccn3Cc2ccc(C(F)(F)F)cc2)n1 [Example 13] | 15.6 µg/mL (≈ 43.7 µM) | 3.9 µg/mL (≈ 10.9 µM) | 1.95 µg/mL (≈ 5.46 µM) | 0.976 µg/mL (≈ 2.73 µM) | 31.3 µg/mL (≈ 87.6 µM) | 0.031 µg/mL (≈ 0.0868 µM) | 0.976 µg/mL (≈ 2.73 µM) |
| Nc1nc(N)c2c(ccc3c2ccn3-c2ccc([N+](=O)[O-])cc2C(F)(F)F)n1 [Example 94] | 62.5 µg/mL (≈ 161 µM) | 31.3 µg/mL (≈ 80.6 µM) | 0.122 µg/mL (≈ 0.314 µM) | 0.122 µg/mL (≈ 0.314 µM) | 125 µg/mL (≈ 322 µM) | 0.061 µg/mL (≈ 0.157 µM) | 0.488 µg/mL (≈ 1.26 µM) |
| Nc1ccc(-n2ccc3c4c(N)nc(N)nc4ccc32)cc1 [Example 96, 7-(4-Aminophenyl)-7H-pyrrolo[3,2-f]-quinazaline-1,3-diamine] | 0.488 µg/mL (≈ 1.68 µM) | 0.244 µg/mL (≈ 0.84 µM) | 0.488 µg/mL (≈ 1.68 µM) | 0.244 µg/mL (≈ 0.84 µM) | 0.976 µg/mL (≈ 3.36 µM) | 0.0152 µg/mL (≈ 0.0524 µM) | 0.031 µg/mL (≈ 0.107 µM) |
| Cc1cccc(C)c1Cn1ccc2c3c(N)nc(N)nc3ccc21 [Example 24] | > 250 µg/mL | 250 µg/mL (≈ 788 µM) | 250 µg/mL (≈ 788 µM) | 250 µg/mL (≈ 788 µM) | > 250 µg/mL | 0.122 µg/mL (≈ 0.384 µM) | 15.6 µg/mL (≈ 49.1 µM) |
| Nc1nc(N)c2c(ccc3c2ccn3Cc2cscn2)n1 [Example 42] | 0.976 µg/mL (≈ 3.29 µM) | 0.244 µg/mL (≈ 0.823 µM) | 0.488 µg/mL (≈ 1.65 µM) | 0.244 µg/mL (≈ 0.823 µM) | 0.976 µg/mL (≈ 3.29 µM) | 0.0038 µg/mL (≈ 0.0128 µM) | 0.122 µg/mL (≈ 0.412 µM) |
| Nc1nc(N)c2c(ccc3c2ccn3-c2cnccn2)n1 [Example 85] | 3.9 µg/mL (≈ 14.1 µM) | 0.976 µg/mL (≈ 3.52 µM) | 3.9 µg/mL (≈ 14.1 µM) | 1.95 µg/mL (≈ 7.03 µM) | 3.9 µg/mL (≈ 14.1 µM) | 0.122 µg/mL (≈ 0.44 µM) | 0.976 µg/mL (≈ 3.52 µM) |
| CCOc1ccc(Cn2ccc3c4c(N)nc(N)nc4ccc32)cc1 [Example 40] | 7.81 µg/mL (≈ 23.4 µM) | 1.95 µg/mL (≈ 5.85 µM) | 1.95 µg/mL (≈ 5.85 µM) | 0.488 µg/mL (≈ 1.46 µM) | 7.81 µg/mL (≈ 23.4 µM) | 0.122 µg/mL (≈ 0.366 µM) | 3.9 µg/mL (≈ 11.7 µM) |
